For this assay, the target named is T1, human GLP-1 receptor (Homo sapiens, UniProt P43220).
T1 construct: expressed in transfected cells
T1 sequence (P43220 24-463): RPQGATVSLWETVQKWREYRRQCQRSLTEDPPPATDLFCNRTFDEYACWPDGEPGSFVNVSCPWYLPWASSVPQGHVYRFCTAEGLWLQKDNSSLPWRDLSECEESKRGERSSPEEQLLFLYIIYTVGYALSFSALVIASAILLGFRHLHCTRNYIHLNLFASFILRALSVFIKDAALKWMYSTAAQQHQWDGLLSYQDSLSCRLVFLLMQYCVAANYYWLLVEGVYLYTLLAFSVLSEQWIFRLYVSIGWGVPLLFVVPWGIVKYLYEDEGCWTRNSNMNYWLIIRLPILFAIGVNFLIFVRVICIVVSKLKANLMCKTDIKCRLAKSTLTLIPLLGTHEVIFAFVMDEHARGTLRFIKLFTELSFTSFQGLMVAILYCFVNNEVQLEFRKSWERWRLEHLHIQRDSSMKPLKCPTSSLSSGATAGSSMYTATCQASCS
The experiment in a line: GLP-1R cAMP Assay. Type of assay: cell-based. Conditions: cAMP accumulation in CHO cells stably overexpressing the human GLP-1 receptor; 30 min treatment; HitHunter cAMP kit; read-out: EC50. Put shortly: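 CHO cells stably overexpressing human GLP-1R, 10,000 cells/well, treated with compound in 20-point dose response in triplicate for 30 min. cAMP accumulation read by enzyme-complementation luminescence after lysis and overnight incubation; dose-response curves fitted.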
As to `CN(c1cccc(C(=O)N2CCN(Cc3nc4ccc(C(=O)O)cc4n3C[C@@H]3CCO3)CC2)c1)c1ccc(C2CC2)cc1Cl` [Compound 122, 2-[(4-{3-[(2-chloro-4-cyclopropylphenyl)(methyl)amino]benzoyl}piperazin-1-yl)methyl]-1-{[(2S)-oxetan-2-yl]methyl}-1H-1,3-benzodiazole-6-carboxylic acid], the concentration giving a half-maximal response (EC50) is < 50 nM. The result for `Cc1ccc(OCc2ccc(F)c(CC3CCN(Cc4nc5ccc(C(=O)O)cc5n4C[C@@H]4CCO4)CC3)n2)c(Cl)c1` [Compound 123, 2-{[4-({6-[(2-chloro-4-methylphenoxy)methyl]-3-fluoropyridin-2-yl}methyl)piperidin-1-yl]methyl}-1-{[(2S)-oxetan-2-yl]methyl}-1H-1,3-benzodiazole-6-carboxylic acid] reads < 50 nM; that for `CCn1cncc1Cn1c(CN2CCC(Cc3cnc(COc4ccc(Cl)cc4Cl)o3)CC2)nc2ccc(C(=O)O)cc21` [Compound 124, 2-{[4-({2-[(2,4-dichlorophenoxy)methyl]-1,3-oxazol-5-yl}methyl)piperidin-1-yl]methyl}-1-[(1-ethyl-1H-imidazol-5-yl)methyl]-1H-1,3-benzodiazole-6-carboxylic acid], < 50 nM; that for `CCn1cncc1Cn1c(CN2CCC(Cc3cnc(COc4ccc(Cl)cc4Cl)o3)CC2)nc2ccc(C(=O)O)nc21` [Compound 125, 2-{[4-({2-[(2,4-dichlorophenoxy)methyl]-1,3-oxazol-5-yl}methyl)piperidin-1-yl]methyl}-3-[(1-ethyl-1H-imidazol-5-yl)methyl]-3H-imidazol[4,5-b]pyridine-5-carboxylic acid], < 50 nM. As for `O=C(O)c1ccc2nc(CN3CCC(Cc4cc(F)cc(COc5ccc(Cl)cc5Cl)c4)CC3)n(C[C@@H]3CCO3)c2c1` [Compound 126, 2-{[4-({3-[(2,4-dichlorophenoxy)methyl]-5-fluorophenyl}methyl)piperidin-1-yl]methyl}-1-{[(2S)-oxetan-2-yl]methyl}-1H-1,3-benzodiazole-6-carboxylic acid], the figure is 50 to 500 nM. Consider `O=C(O)c1ccc2nc(CN3CCC(Cc4cnc(COc5ccc(Cl)cc5Cl)o4)CC3)n(C[C@@H]3CCO3)c2n1` [Compound 129, 2-{[4-({2-[(2,4-dichlorophenoxy)methyl]-1,3-oxazol-5-yl}methyl)piperidin-1-yl]methyl}-3-{[(2S)-oxetan-2-yl]methyl}-3H-imidazo[4,5-b]pyridine-5-carboxylic acid], for which the half-maximal effective concentration (EC50) was < 50 nM. The result for `CCn1cncc1Cn1c(CN2CCC(Cc3cc(F)cc(COc4ccc(Cl)cc4Cl)c3)CC2)nc2ccc(C(=O)O)cc21` [Compound 133, 2-{[4-({3-[(2,4-dichlorophenoxy)methyl]-5-fluorophenyl}methyl)piperidin-1-yl]methyl}-1-[(1-ethyl-1H-imidazol-5-yl)methyl]-1H-1,3-benzodiazole-6-carboxylic acid] reads < 50 nM; that for `O=C(O)c1ccc2nc(CN3CCC(Cc4cccc(COc5ccc(Cl)cc5Cl)c4F)CC3)n(C[C@@H]3CCO3)c2c1` [Compound 135, 2-{[4-({3-[(2,4-dichlorophenoxy)methyl]-2-fluorophenyl}methyl)piperidin-1-yl]methyl}-1-{[(2S)-oxetan-2-yl]methyl}-1H-1,3-benzodiazole-6-carboxylic acid], 50 to 500 nM. As to `CCn1cncc1Cn1c(CN2CCC(Cc3cc(COc4ccc(Cl)cc4Cl)ccc3F)CC2)nc2ccc(C(=O)O)cc21` [Compound 137, 2-{[4-({5-[(2,4-dichlorophenoxy)methyl]-2-fluorophenyl}methyl)piperidin-1-yl]methyl}-1-[(1-ethyl-1H-imidazol-5-yl)methyl]-1H-1,3-benzodiazole-6-carboxylic acid], the concentration for a half-maximal effect (EC50) is < 50 nM. `CCn1cncc1Cn1c(CN2CCC(Cc3cnc(COc4ccc(Cl)cc4C#N)o3)CC2)nc2ccc(C(=O)O)cc21` [Compound 138, 2-{[4-({2-[(4-chloro-2-cyanophenoxy)methyl]-1,3-oxazol-5-yl}methyl)piperidin-1-yl]methyl}-1-[(1-ethyl-1H-imidazol-5-yl)methyl]-1H-1,3-benzodiazole-6-carboxylic acid]: the EC50 is < 50 nM. Turning to `CCn1cncc1Cn1c(CN2CCC(Cc3cncc(COc4ccc(Cl)cc4Cl)c3)CC2)nc2ccc(C(=O)O)cc21` [Compound 139, 2-{[4-({5-[(2,4-dichlorophenoxy)methyl]pyridin-3-yl}methyl)piperidin-1-yl]methyl}-1-[(1-ethyl-1H-imidazol-5-yl)methyl]-1H-1,3-benzodiazole-6-carboxylic acid], the 50% effective concentration (EC50) was < 50 nM.

Take `CCn1cncc1Cn1c(CN2CCC(Cc3cccc(COc4ccc(Cl)cc4Cl)n3)CC2)nc2ccc(C(=O)O)cc21` [Compound 140, 2-{[4-({6-[(2,4-dichlorophenoxy)methyl]pyridin-2-yl}methyl)piperidin-1-yl]methyl}-1-[(1-ethyl-1H-imidazol-5-yl)methyl]-1H-1,3-benzodiazole-6-carboxylic acid]: the EC50 is < 50 nM.

With `CCn1cncc1Cn1c(CN2CCC(Cc3cnc(COc4ccc(Cl)cc4C)o3)CC2)nc2ccc(C(=O)O)cc21` [Compound 141, 2-{[4-({2-[(4-chloro-2-methylphenoxy)methyl]-1,3-oxazol-5-yl}methyl)piperidin-1-yl]methyl}-1-[(1-ethyl-1H-imidazol-5-yl)methyl]-1H-1,3-benzodiazole-6-carboxylic acid], the half-maximal effective concentration (EC50) is < 50 nM. Take `O=C(O)c1ccc2nc(CN3CCc4[nH]c5ccc(OCc6ccc(Cl)cc6Cl)cc5c4C3)n(C[C@@H]3CCO3)c2c1` [Compound 142, 2-({8-[(2,4-dichlorophenyl)methoxy]-1H,2H,3H,4H,5H-pyrido[4,3-b]indol-2-yl}methyl)-1-{[(2S)-oxetan-2-yl]methyl}-1H-1,3-benzodiazole-6-carboxylic acid]: the 50% effective concentration (EC50) was > 500 nM.

Turning to `CCn1cncc1Cn1c(CN2CCc3[nH]c4ccc(OCc5ccc(Cl)cc5Cl)cc4c3C2)nc2ccc(C(=O)O)cc21` [Compound 143, 2-({8-[(2,4-dichlorophenyl)methoxy]-1H,2H,3H,4H,5H-pyrido[4,3-b]indol-2-yl}methyl)-1-[(1-ethyl-1H-imidazol-5-yl)methyl]-1H-1,3-benzodiazole-6-carboxylic acid], the concentration for a half-maximal effect (EC50) lay within 50 to 500 nM. As for `CCn1cncc1Cn1c(CN2CCC(Cc3cnc(COc4ncc(C5CC5)cc4Cl)o3)CC2)nc2ccc(C(=O)O)cc21` [Compound 144, 2-({4-[(2-{[(3-chloro-5-cyclopropylpyridin-2-yl)oxy]methyl}-1,3-oxazol-5-yl)methyl]piperidin-1-yl}methyl)-1-[(1-ethyl-1H-imidazol-5-yl)methyl]-1H-1,3-benzodiazole-6-carboxylic acid], the half-maximal effective concentration (EC50) was < 50 nM.

For `O=C(O)c1ccc2nc(CN3CCC(Cc4cccc(COc5ccc(Cl)cc5Cl)c4)CC3)n(C[C@H]3CCOC3)c2c1` [Compound 148, 2-{[4-({3-[(2,4-dichlorophenoxy)methyl]phenyl}methyl)piperidin-1-yl]methyl}-1-{[(3R)-oxolan-3-yl]methyl}-1H-1,3-benzodiazole-6-carboxylic acid], the EC50 is < 50 nM. As to `O=C(O)c1ccc2nc(CN3CCC(Cc4cccc(COc5ccc(Cl)cc5Cl)c4)CC3)n(Cc3ncco3)c2c1` [Compound 149, 2-{[4-({3-[(2,4-dichlorophenoxy)methyl]phenyl}methyl)piperidin-1-yl]methyl}-1-[(1,3-oxazol-2-yl)methyl]-1H-1,3-benzodiazole-6-carboxylic acid], the EC50 is < 50 nM. The result for `O=C(O)c1ccc2nc(CN3CCC(Cc4cccc(COc5ccc(Cl)cc5Cl)c4)CC3)n(C[C@@H]3CCCO3)c2c1` [Compound 151, 2-{[4-({3-[(2,4-dichlorophenoxy)methyl]phenyl}methyl)piperidin-1-yl]methyl}-1-{[(2S)-oxolan-2-yl]methyl}-1H-1,3-benzodiazole-6-carboxylic acid] reads < 50 nM. Take `CCn1cncc1Cn1c(CN2CCC(Cc3cccc(COc4ccc(C5CC5)cc4Cl)n3)CC2)nc2ccc(C(=O)O)cc21` [Compound 153, 2-{[4-({6-[(2-chloro-4-cyclopropylphenoxy)methyl]pyridin-2-yl}methyl)piperidin-1-yl]methyl}-1-[(1-ethyl-1H-imidazol-5-yl)methyl]-1H-1,3-benzodiazole-6-carboxylic acid]: the EC50 is < 50 nM.

Regarding `CCn1cncc1Cn1c(CN2CCN(C(=O)c3cnc(COc4ccc(Cl)cc4Cl)o3)CC2)nc2ccc(C(=O)O)cc21` [Compound 156, 2-[(4-{2-[(2,4-dichlorophenoxy)methyl]-1,3-oxazole-5-carbonyl}piperazin-1-yl)methyl]-1-[(1-ethyl-1H-imidazol-5-yl)methyl]-1H-1,3-benzodiazole-6-carboxylic acid], the EC50 is < 50 nM.

Regarding `N#Cc1cc(Cl)ccc1OCc1cccc(CC2CCN(Cc3nc4ccc(C(=O)O)cc4n3C[C@H]3CCOC3)CC2)c1` [Compound 158, 2-{[4-({3-[(4-chloro-2-cyanophenoxy)methyl]phenyl}methyl)piperidin-1-yl]methyl}-1-{[(3R)-oxolan-3-yl]methyl}-1H-1,3-benzodiazole-6-carboxylic acid], the EC50 was < 50 nM.

In the case of `N#Cc1cc(Cl)ccc1OCc1cccc(CC2CCN(Cc3nc4ccc(C(=O)O)cc4n3Cc3ncco3)CC2)c1` [Compound 159, 2-{[4-({3-[(4-chloro-2-cyanophenoxy)methyl]phenyl}methyl)piperidin-1-yl]methyl}-1-[(1,3-oxazol-2-yl)methyl]-1H-1,3-benzodiazole-6-carboxylic acid], the half-maximal effective concentration (EC50) was < 50 nM. The result for `CCn1cncc1Cn1c(CN2CCN(C(=O)c3cnc(COc4ccc(C5CC5)cc4Cl)o3)CC2)nc2ccc(C(=O)O)cc21` [Compound 160, 2-[(4-{2-[(2-chloro-4-cyclopropylphenoxy)methyl]-1,3-oxazole-5-carbonyl}piperazin-1-yl)methyl]-1-[(1-ethyl-1H-imidazol-5-yl)methyl]-1H-1,3-benzodiazole-6-carboxylic acid] reads < 50 nM.
